Test results published in patent US9187472B2 (AbbVie Inc., priority 2012, dated 2015).

Columns and labels:
PC3 cells = test: NAMPT Cell Proliferation Assay; assay type: cell-based; conditions: Homo sapiens, PC-3, 120 h, 5 days incubation, cell viability by Cell Titer Glo
Procedure, shortened: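 PC3 cells were plated at 500 cells/well in RPMI with 10% heat-inactivated FBS, left to attach overnight, then given compounds in 10-fold dilutions from 10 μM to 1×10^−5 μM. After 5 days at 37° C and 5% CO2, viability was read by luminescence and IC50s came from sigmoidal fits of percent inhibition.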

[1] = target: NAMPT (human, recombinant, C-terminally His-tagged) (Homo sapiens, UniProt P43490); test: Time-Resolved Fluorescence Resonance Energy Transfer (TR-FRET) Binding Assay of NAMPT; conditions: without substrates; 6.8 nM NAMPT, 200 nM probe, 3 hours equilibration
Procedure, shortened: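 Probe displacement by compound was measured with 6.8 nM NAMPT, 200 nM Oregon Green 488-conjugated nicotinamide-competitive inhibitor probe and 1 nM Tb-anti-His antibody in 50 mM HEPES pH 7.5, 100 mM NaCl, 10 mM MgCl2, 1 mM DTT, 1% glycerol, 2% DMSO (final). After 3 h at room temperature, TR-FRET was read; IC50 from four-parameter logistic fit.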

NAMPT = NAMPT (Homo sapiens, UniProt P43490); test: TR-FRET Binding Assay of NAMPT with PRPP; conditions: with 200 μM PRPP and 2.5 mM ATP; 2 nM NAMPT, 2 nM probe, 16 hours equilibration
Procedure, shortened: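 Run in the presence of substrates (200 μM PRPP, 2.5 mM ATP) with final 2 nM NAMPT, 2 nM probe, 1 nM Tb-anti-His antibody and 2% DMSO. Mixtures equilibrated 16 h before TR-FRET measurement so test compounds could be enzymatically modified.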

Sequence of NAMPT (human, recombinant, C-terminally His-tagged) (P43490 whole entry): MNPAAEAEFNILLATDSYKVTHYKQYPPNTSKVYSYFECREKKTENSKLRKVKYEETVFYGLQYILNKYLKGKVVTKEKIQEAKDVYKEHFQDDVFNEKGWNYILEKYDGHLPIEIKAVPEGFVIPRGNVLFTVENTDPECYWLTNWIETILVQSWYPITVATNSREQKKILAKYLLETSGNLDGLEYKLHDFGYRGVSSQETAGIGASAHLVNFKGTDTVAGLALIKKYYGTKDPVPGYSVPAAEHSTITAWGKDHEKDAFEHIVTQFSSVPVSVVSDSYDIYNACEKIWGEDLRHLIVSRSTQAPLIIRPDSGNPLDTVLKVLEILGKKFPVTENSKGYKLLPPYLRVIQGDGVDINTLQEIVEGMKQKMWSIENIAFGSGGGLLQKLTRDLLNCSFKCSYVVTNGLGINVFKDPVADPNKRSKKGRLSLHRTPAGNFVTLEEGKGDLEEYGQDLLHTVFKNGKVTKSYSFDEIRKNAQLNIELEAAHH
Sequence of NAMPT (P43490 whole entry): as above

Row | Compound | IC50 (PC3 cells) | IC50 [1] | IC50 (NAMPT)
1 | Cn1cccc1C(=O)N1CCC(c2ccc(C(=O)NCc3ccn4ccnc4c3)cc2)C1 (stereo not drawn) [Example 606, N-(imidazo[1,2-a]pyridin-7-ylmethyl)-4-{1-[(1-methyl-1H-pyrrol-2-yl)carbonyl]pyrrolidin-3-yl}benzamide] | 34.8 nM | 281 nM | 0.169 nM
2 | O=C(NCc1ccn2ccnc2c1)c1ccc(C2CCN(C(=O)CC3CCCCC3)C2)cc1 (stereo not drawn) [Example 607, 4-[1-(cyclohexylacetyl)pyrrolidin-3-yl]-N-(imidazo[1,2-a]pyridin-7-ylmethyl)benzamide] | 74.4 nM | 478 nM | 0.796 nM
3 | O=C(NCc1ccn2ccnc2c1)c1ccc(C2CCN(C(=O)c3ccncc3)C2)cc1 (stereo not drawn) [Example 608, N-(imidazo[1,2-a]pyridin-7-ylmethyl)-4-[1-(pyridin-4-ylcarbonyl)pyrrolidin-3-yl]benzamide] | 148 nM | 481 nM | 0.51 nM
4 | O=C(NCc1ccn2ccnc2c1)c1ccc(C2CCN(C(=O)c3cccnc3)C2)cc1 (stereo not drawn) [Example 609, N-(imidazo[1,2-a]pyridin-7-ylmethyl)-4-[1-(pyridin-3-ylcarbonyl)pyrrolidin-3-yl]benzamide] | 142 nM | 598 nM | 0.62 nM
5 | O=C(NCc1ccn2ccnc2c1)c1ccc(C2CCN(C(=O)C3CCCCC3)C2)cc1 (stereo not drawn) [Example 610, 4-[1-(cyclohexylcarbonyl)pyrrolidin-3-yl]-N-(imidazo[1,2-a]pyridin-7-ylmethyl)benzamide] | 74.4 nM | 751 nM | 0.762 nM
6 | O=C(NCc1ccn2ccnc2c1)c1ccc(C2CCN(C(=O)c3ccccn3)C2)cc1 (stereo not drawn) [Example 611, N-(imidazo[1,2-a]pyridin-7-ylmethyl)-4-[1-(pyridin-2-ylcarbonyl)pyrrolidin-3-yl]benzamide] | 70.9 nM | 288 nM | 0.621 nM
7 | O=C(NCc1ccn2ccnc2c1)c1ccc(C2CCN(C(=O)c3ccoc3)C2)cc1 (stereo not drawn) [Example 612, 4-[1-(furan-3-ylcarbonyl)pyrrolidin-3-yl]-N-(imidazo[1,2-a]pyridin-7-ylmethyl)benzamide] | 695 nM | 706 nM | 0.919 nM
8 | O=C(NCc1ccn2ccnc2c1)c1ccc(C2CCN(C(=O)c3nccs3)C2)cc1 (stereo not drawn) [Example 613, N-(imidazo[1,2-a]pyridin-7-ylmethyl)-4-[1-(1,3-thiazol-2-ylcarbonyl)pyrrolidin-3-yl]benzamide] | 140 nM | 347 nM | 0.916 nM
9 | CC1(C(=O)N2CCC(c3ccc(C(=O)NCc4ccn5ccnc5c4)cc3)C2)CCCCC1 (stereo not drawn) [Example 614, N-(imidazo[1,2-a]pyridin-7-ylmethyl)-4-{1-[(1-methylcyclohexyl)carbonyl]pyrrolidin-3-yl}benzamide] | 5.72 nM | 216 nM | 0.67 nM
10 | CC(C)C(C)C(=O)N1CCC(c2ccc(C(=O)NCc3ccn4ccnc4c3)cc2)C1 (stereo not drawn) [Example 615, 4-[1-(2,3-dimethylbutanoyl)pyrrolidin-3-yl]-N-(imidazo[1,2-a]pyridin-7-ylmethyl)benzamide] | 18.8 nM | 544 nM | 0.79 nM
11 | Cc1cccc(C(=O)N2CCC(c3ccc(C(=O)NCc4ccn5ccnc5c4)cc3)C2)c1 (stereo not drawn) [Example 616, N-(imidazo[1,2-a]pyridin-7-ylmethyl)-4-[1-(3-methylbenzoyl)pyrrolidin-3-yl]benzamide] | 32.6 nM | 174 nM | 0.49 nM
12 | O=C(NCc1ccn2ccnc2c1)c1ccc(C2CCN(C(=O)c3ccsc3)C2)cc1 (stereo not drawn) [Example 617, N-(imidazo[1,2-a]pyridin-7-ylmethyl)-4-[1-(thiophen-3-ylcarbonyl)pyrrolidin-3-yl]benzamide] | 82.6 nM | 164 nM | 0.645 nM
13 | O=C(NCc1ccn2ccnc2c1)c1ccc(C2CCN(C(=O)c3cccc(OC(F)(F)F)c3)C2)cc1 (stereo not drawn) [Example 618, N-(imidazo[1,2-a]pyridin-7-ylmethyl)-4-{1-[3-(trifluoromethoxy)benzoyl]pyrrolidin-3-yl}benzamide] | 125 nM | 500 nM | 0.751 nM
14 | Cc1ccsc1C(=O)N1CCC(c2ccc(C(=O)NCc3ccn4ccnc4c3)cc2)C1 (stereo not drawn) [Example 619, N-(imidazo[1,2-a]pyridin-7-ylmethyl)-4-{1-[(3-methylthiophen-2-yl)carbonyl]pyrrolidin-3-yl}benzamide] | 3.3 nM | 79.3 nM | 0.616 nM
15 | O=C(NCc1ccn2ccnc2c1)c1ccc(C2CCN(C(=O)c3cccc(C(F)(F)F)c3)C2)cc1 (stereo not drawn) [Example 620, N-(imidazo[1,2-a]pyridin-7-ylmethyl)-4-{1-[3-(trifluoromethyl)benzoyl]pyrrolidin-3-yl}benzamide] | 131 nM | 710 nM | 1 nM
16 | CC(C)(O)Cn1cc(-c2ccc(C(=O)NCc3ccc4ncnn4c3)s2)cn1 [Example 621, 5-[1-(2-hydroxy-2-methylpropyl)-1H-pyrazol-4-yl]-N-([1,2,4]triazolo[1,5-a]pyridin-6-ylmethyl)thiophene-2-carboxamide] | 25.3 nM | 114 nM | 5.42 nM
17 | CC1(Cn2cc(-c3ccc(C(=O)NCc4ccc5ncnn5c4)s3)cn2)CCOCC1 [Example 622, 5-{1-[(4-methyltetrahydro-2H-pyran-4-yl)methyl]-1H-pyrazol-4-yl}-N-([1,2,4]triazolo[1,5-a]pyridin-6-ylmethyl)thiophene-2-carboxamide] | 7.06 nM | 29.4 nM | 2.36 nM
18 | CS(=O)(=O)N1CC(c2ccc(C(=O)NCc3ccn4ccnc4c3)cc2)C1 [Example 623, N-(imidazo[1,2-a]pyridin-7-ylmethyl)-4-[1-(methylsulfonyl)azetidin-3-yl]benzamide] | 446 nM | 1010 nM | 1.6 nM
19 | CS(=O)(=O)N1CCC(c2ccc(C(=O)NCc3ccn4ccnc4c3)cc2)C1 (stereo not drawn) [Example 624, N-(imidazo[1,2-a]pyridin-7-ylmethyl)-4-[1-(methylsulfonyl)pyrrolidin-3-yl]benzamide] | 329 nM | 261 nM | 0.627 nM
20 | CCS(=O)(=O)N1CCC(c2ccc(C(=O)NCc3ccn4ccnc4c3)cc2)C1 (stereo not drawn) [Example 625, 4-[1-(ethylsulfonyl)pyrrolidin-3-yl]-N-(imidazo[1,2-a]pyridin-7-ylmethyl)benzamide] | 226 nM | 795 nM | 0.76 nM
21 | O=C(NCc1ccn2ccnc2c1)c1ccc(C2CCN(S(=O)(=O)C3CC3)C2)cc1 (stereo not drawn) [Example 626, 4-[1-(cyclopropylsulfonyl)pyrrolidin-3-yl]-N-(imidazo[1,2-a]pyridin-7-ylmethyl)benzamide] | 80.7 nM | 645 nM | 0.793 nM
22 | O=C(NCc1ccn2ccnc2c1)c1ccc(C2CCN(S(=O)(=O)c3ccccc3)C2)cc1 (stereo not drawn) [Example 627, N-(imidazo[1,2-a]pyridin-7-ylmethyl)-4-[1-(phenylsulfonyl)pyrrolidin-3-yl]benzamide] | 17.5 nM | 211 nM | 0.71 nM
23 | CC1CC1C(=O)N1CC(c2ccc(C(=O)NCc3ccn4ccnc4c3)cc2)C1 (stereo not drawn) [Example 628, N-(imidazo[1,2-a]pyridin-7-ylmethyl)-4-{1-[(2-methylcyclopropyl)carbonyl]azetidin-3-yl}benzamide] | 43.6 nM | 706 nM | 0.978 nM
24 | O=C(NCc1ccn2ccnc2c1)c1ccc(C2CN(C(=O)CC3CCCC3)C2)cc1 [Example 629, 4-[1-(cyclopentylacetyl)azetidin-3-yl]-N-(imidazo[1,2-a]pyridin-7-ylmethyl)benzamide] | 65.2 nM | 230 nM | 0.643 nM
25 | CCC(C)CC(=O)N1CC(c2ccc(C(=O)NCc3ccn4ccnc4c3)cc2)C1 (stereo not drawn) [Example 630, N-(imidazo[1,2-a]pyridin-7-ylmethyl)-4-[1-(3-methylpentanoyl)azetidin-3-yl]benzamide] | 40.4 nM | 266 nM | 0.563 nM
26 | O=C(NCc1ccn2ccnc2c1)c1ccc(C2CN(C(=O)C3CCCC3)C2)cc1 [Example 631, 4-[1-(cyclopentylcarbonyl)azetidin-3-yl]-N-(imidazo[1,2-a]pyridin-7-ylmethyl)benzamide] | 77.2 nM | 616 nM | 1.26 nM
27 | CC1(C(=O)N2CC(c3ccc(C(=O)NCc4ccn5ccnc5c4)cc3)C2)CC1 [Example 632, N-(imidazo[1,2-a]pyridin-7-ylmethyl)-4-{1-[(1-methylcyclopropyl)carbonyl]azetidin-3-yl}benzamide] | 32.3 nM | 270 nM | 0.698 nM
28 | CC(C)(C)C(=O)N1CC(c2ccc(C(=O)NCc3ccn4ccnc4c3)cc2)C1 [Example 633, 4-[1-(2,2-dimethylpropanoyl)azetidin-3-yl]-N-(imidazo[1,2-a]pyridin-7-ylmethyl)benzamide] | 12 nM | 335 nM | 0.707 nM
29 | O=C(NCc1ccn2ccnc2c1)c1ccc(C2CN(C(=O)c3cncs3)C2)cc1 [Example 634, N-(imidazo[1,2-a]pyridin-7-ylmethyl)-4-[1-(1,3-thiazol-5-ylcarbonyl)azetidin-3-yl]benzamide] | 83.5 nM | 353 nM | 0.648 nM
